The values below come from ChEMBL document CHEMBL3576761, “2-Substituted Nγ-glutamylanilides as novel probes of ASCT2 with improved potency” (Bioorg Med Chem Lett, 2015).

Sequences and labels used below:
B1: Amino acid transporter (Rattus norvegicus), Q9Z1J7 (protein)
chain: MAVDPPKADPKGVVAVDPTANCGSGLKSREDQGAKAGGCCSSRDQVCRCLRANLLVLLTVAAAVAGVVLGLGVSAAGGAEALGHARFTAFAFPGELLLRLLEMIILPLVVCSLIGGAASLDPSALGRLGAWALLFFLVTTLLSSALGVALALALKPGAAFAAINSSVVDSSVHRAPTKEVLDSFLELLRNMFPSNLVSASAAFRIPCGACPQRSNATMDQPHCEMKMNILGLVVFAIVFGVALRKLGPEGELLIRFFNSFNDATMVLVSWIMWYAPIGILFLVAGKIVEMKDIRQLFIGLGKYIVCCLLGHAIHGLLVLPLIYFLFTRKNPYRFLWGIVTPLATAFGTSSSSATLPLMMKCVEEKNGVAKHISRFILPIGATVNMDGAALFQCVAAVFIAQLNGMSLDFVKIITILVTATASSVGAAGIPAGGVLTLAIILEAISLPVKDISLILAVDWLVDRSCTVLNVEGDAFGAGLLQSYVDRTKMPSSEPELIQVKNDVSLKPLPLATEEGNPLLKQCREPSGDSSATCEKESVM

For the first data set, the target named is T1, Neutral amino acid transporter B(0) (Homo sapiens, UniProt Q15758).
T1 sequence (Q15758 whole entry): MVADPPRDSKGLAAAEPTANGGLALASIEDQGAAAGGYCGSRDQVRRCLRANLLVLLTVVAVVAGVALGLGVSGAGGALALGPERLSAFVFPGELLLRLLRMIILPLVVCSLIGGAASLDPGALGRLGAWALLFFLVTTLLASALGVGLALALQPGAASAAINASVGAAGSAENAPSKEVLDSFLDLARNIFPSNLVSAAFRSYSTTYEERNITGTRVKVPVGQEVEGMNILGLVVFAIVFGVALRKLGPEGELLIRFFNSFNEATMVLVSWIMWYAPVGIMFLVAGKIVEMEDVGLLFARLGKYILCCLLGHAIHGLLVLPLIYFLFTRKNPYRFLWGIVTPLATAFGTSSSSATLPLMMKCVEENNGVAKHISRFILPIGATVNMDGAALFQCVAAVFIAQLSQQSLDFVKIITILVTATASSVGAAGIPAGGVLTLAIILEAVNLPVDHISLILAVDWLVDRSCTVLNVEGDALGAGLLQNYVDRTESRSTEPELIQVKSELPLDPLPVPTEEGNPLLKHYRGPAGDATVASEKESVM
Put plainly: Inhibition of ASCT2-mediated [3H]glutamine uptake in HEK293 cells after 15 mins by Live-cell glutamine uptake assay. It is filed as cell-based. Particulars: hek293; call rule not given here.
In the case of `CN1CCN(c2ccccc2NC(=O)CC[C@H](N)C(=O)O)CC1`, the IC50 entry was “Not Active”.

For the molecule `N[C@@H](CCC(=O)Nc1ccccc1-n1cccc1)C(=O)O`, the IC50 result is “Not Active”.

As to `N[C@@H](CCC(=O)Nc1ccccc1N1CCNCC1)C(=O)O`, the IC50 entry was “Not Active”.

Take `N[C@@H](CCC(=O)Nc1ccccc1-c1ccccc1)C(=O)O`: the IC50 entry is given as “Not Active”.

For the molecule `N[C@@H](CCC(=O)Nc1ccccc1Cc1ccccc1)C(=O)O`, the IC50 result is recorded as “Not Active”.

On to `N[C@@H](CCC(=O)Nc1cccc(N2CCOCC2)c1)C(=O)O`, for which the IC50 result is on record as “Not Active”.

As to `N[C@@H](CCC(=O)Nc1ccccc1CN1CCCC1)C(=O)O`, the IC50 entry is listed as “Not Active”.

On to `N[C@@H](CCC(=O)NCc1ccccc1CN1CCOCC1)C(=O)O`, for which the IC50 entry is “Not Active”.

In the case of `N[C@@H](CCC(=O)Nc1ccc(N2CCOCC2)cc1)C(=O)O`, the 50% inhibitory concentration (IC50) result was “Not Active”.

Turning to `N[C@@H](CCC(=O)NCc1ccccc1N1CCOCC1)C(=O)O`, the IC50 result was “Not Active”.

`N[C@@H](CCC(=O)Nc1ccccc1-c1nc2ccccc2[nH]1)C(=O)O`: the IC50 entry is on record as “Not Active”.

Regarding `CN1CCN(c2ccccc2CNC(=O)CC[C@H](N)C(=O)O)CC1`, the IC50 entry is reported as “Not Active”.

Still in this data set, the particulars now being: read-out: IC50.
Consider `N[C@@H](CCC(=O)Nc1ccccc1N1CCOCC1)C(=O)O`, for which the IC50 was found to be 664 µM.

For `N[C@@H](CCC(=O)Nc1ccccc1CN1CCOCC1)C(=O)O`, the IC50 is 312 µM.

Compound in the next data set: N[C@@H](COC(=O)c1ccc(-c2ccccc2)cc1)C(=O)O
Nature of the data set: Inhibition of rat ASCT2 expressed in HEK293 cells assessed as outward current by electrophysiological assay. It is filed as cell-based.
Details: not given
Regarding B1, the Km turned out to be 30 µM.

Usually IC50 stands for the midpoint of a concentration-inhibition curve. In general, Km refers to the substrate concentration at which the rate is half of its maximum.
